Laboratory results as given in patent US20080221134A1, “8-ALKYNYLXANTHINES AND DERIVATIVES” (priority 2006, published 2008).
“Also recorded” adds a separate entry of the source.

Columns and labels:
[1] = tested on: CGS-21680 induced catalepsy; assay: Acute CGS-21680 induced catalepsy test; type: in vivo, rat; conditions: for effect on catalepsy time in acute CGS-21680 induced catalepsy model: i.p. in DMSO, 0.1-10 mg/kg
Description: Animals were administered with Reserpine or CGS-21680 according to methods known to the skilled person in the art. These models and procedures are e.g. described by Ferré S. et al., Neurosci. Let., 1991, 130, 162; Ferré S. et al., Neuroscience, 1992, 51, 501; Kafka S. H. et al., Eur. J. Pharmacol., 1996, 295, 147; Rimondini R. et al., Neuropsychopharmacology, 1997, 17, 82 and are herein incorporated by reference. In the acute CGS-21680 induced catalepsy model (CGS model) the test compounds (TC, compounds according to the present invention) and CGS-21680 (i.p. 2 mg/kg) were administered 60 minutes before the start of the catalepsy bar measurement and behavioural testing described below (see also FIG. 1). In the acute Reserpine induced catalepsy model (RES model Resperine (subcutaneously, 3 mg/kg) was injected 24 h prior to the test compound application. Catalepsy bar measurement took place 60 minutes after test compound application (see FIG. 1). Test compounds were administered i.p. in DMSO in following doses (mg/kg): 0.1, 0.3, 1, 3, 10.
Dimethylsulfoxide (DMSO) was used as vehicle for the test compounds and Reserpine. Reserpine was dissolved in DMSO in a concentration of 3 mg/ml. A 10% (w/v) Cyclodextrin solution was used as vehicle for CGS-21680. CGS 21680 was dissolved in 10% (w/v) Cyclodextrine in a concentration of 2 mg/ml.
Caffeine was used as a reference compound in the CGS-21680 induced catalepsy model. A caffeine solution was prepared with water for injection purposes to a concentration of 30 mg/ml. The solution was administered intraperitoneally in a volume of 1 ml/kg (30 mg/kg) 30 minutes before the beginning of testing and after CGS-21680 pre-treatment (1 hour prior to testing).
The catalepsy bar after CGS-21680 administration was measured (CAT) as follows: The rat was placed with its forepaws on a log of wood. […] If the animal descended faster than 1 second, the trial was regarded as invalid. If more than 20 trials were rated as invalid, the values of all uncompleted trials were noted as 0. The animal was tested until five trials had been completed and the time for each trial was noted. Only the values of the last three trials were used for the analysis. The following parameters were calculated: maximum time to descend (s) and median time to descend (s).
Behavioural observation (BO) included the measurement of the body tone, inclined plane and grip strength.
The rat is taken in the hand of the observer and the animal's body tone is rated as normal, soft or hard. The rating is performed immediately after taking the animal from its home cage before performance of catalepsy testing. The following parameters were calculated: mean occurrence of hard body tone and mean occurrence of soft body tone.
The rat is horizontally placed to an inclined plane for a maximum time of 30 seconds. Time to reach bottom or top is measured. […] The test is performed after catalepsy testing. Time to leave the inclined plane(s) was measured.
The rat is put on a grip and the observer pulls the animal back on his tail. The strength (fore paws and hind paws) by which it holds on the grid is scored as grasping and pulling, grasping without pulling or no grasping. The test is performed after the inclined plane test. The following parameters were calculated: mean score of fore paw grip strength and mean score of hind paw grip strength.
All statistical tests were performed two tailed with a value of p<0.05 considered as significant.
To assess the effects of CGS-21680 and Reserpine pre-treatment compared to vehicle treated controls statistical comparisons between the test groups were performed using a U test statistic.
To assess the effects of test compounds on CGS-21680 and Reserpine pre-treated animals correlation analyses including animals from test groups and the respective test compound-treated groups were performed. […]

[2] = tested on: haloperidol induced model of Parkinson's Disease; assay: Haloperidol induced model of Parkinson's Disease; conditions: in vivo
[3] = vs only CGS-21680-treated animals

| SMILES | effect on catalepsy time in acute CGS-21680 induced catalepsy model [1] | any other parameter measured after CGS-21680 treatment ([1]; parameters other than body tone) | hard body tone after CGS-21680 treatment [1, 3] | soft body tone after CGS-21680 treatment [1, 3] | effect in haloperidol induced model of Parkinson's Disease [2] | grip strength after CGS-21680 treatment [1, 3] | maximum catalepsy values after CGS-21680 treatment [1, 3] | median catalepsy values after CGS-21680 treatment [1, 3] |
| --- | --- | --- | --- | --- | --- | --- | --- | --- |
| C#CCn1c(=O)c2c(nc(C#Cc3ccc(OC)c(OC)c3)n2C)n(CCCO)c1=O [test compound 2, 3-(3-hydroxypropyl)-8-(3,4-dimethoxyphenylethynyl)-7-methyl-1-prop-2-ynyl-3,7-dihydropurine-2,6-dione] | reduced catalepsy time; also recorded: reduction of catalepsy time; also recorded: significant effects | no significant effects | significantly increased | decreased | – | – | – | – |
| C#CCn1c(=O)c2c(nc(C#Cc3ccc(OC)c(OC)c3)n2C)n(CC)c1=O [test compound 1, 3-ethyl-8-(3,4-dimethoxyphenylethynyl)-7-methyl-1-prop-2-ynyl-3,7-dihydropurine-2,6-dione] | significantly reduced catalepsy time; also recorded: significant reduction of catalepsy time; also recorded: significant effects | – | significantly increased | decreased | effective; also recorded: significant effects | higher amount of grip strength | decreased | decreased |
